{
  "source": "PubChem BioAssay AID1259409",
  "about": "(Chemical Carcinogenesis Research Information System (CCRIS), 2018)",
  "origin": "cited, not measured here",
  "system": "rodent chemically induced tumor inhibition, incidence and multiplicity",
  "assay": "CCRIS tumor inhibitor studies",
  "conditions": "for tumour outcome (control, treated, inhibition, significance): Route [Inhibitor]: ORAL",
  "description": "The CCRIS database contains chemical records with carcinogenicity, mutagenicity, tumor promotion, and tumor inhibition test results. It was developed by the National Cancer Institute (NCI). Data are derived from studies cited in primary journals, current awareness tools, NCI reports, and other sources. Test results have been reviewed by experts in carcinogenesis and mutagenesis.\nCCRIS provides historical information from the years 1985 - 2011. It is no longer updated.\nThis is an archive assay for CCRIS tumor inhibitor studies.",
  "note": "Where “and” joins values, the source holds several entries; their conditions need not be identical. Equal entries are not always repeated.",
  "data": [
    {"smiles": "C=C/C(C)=C/C=C/C(C)=C/C=C1/C(C)=CCCC1(C)C", "values": [
      {"measurement": "tumour outcome (control, treated, inhibition, significance)", "setting": "Carcinogen: N-METHYL-N-NITROSOUREA, 684-93-5, Dose [Inhibitor]: 0, 67 MG/KG DIET FOR FOR 88 D BEGINNING 2 D POST CARCINOGEN DOSE (STUDY DURATION: 90 D), Species: RAT, Strain/Sex: SPRAGUE-DAWLEY/FEMALE, Target Tissue: Type of Lesion: MAMMARY GLAND: ADENOCARCINOMA, Dose [Carcinogen]: 45 MG/KG BW ONCE, Promoter: NONE USED", "value": "100%, 93%, 7%, not significant"},
      {"measurement": "tumour outcome (control, treated, inhibition, significance)", "setting": "Carcinogen: N-METHYL-N-NITROSOUREA, 684-93-5, Dose [Inhibitor]: 0, 134 MG/KG DIET FOR 88 D BEGINNING 2 D POST CARCINOGEN DOSE (STUDY DURATION: 90 D), Species: RAT, Strain/Sex: SPRAGUE-DAWLEY/FEMALE, Target Tissue: Type of Lesion: MAMMARY GLAND: ADENOCARCINOMA, Dose [Carcinogen]: 45 MG/KG BW ONCE, Promoter: NONE USED", "value": "100%, 100%, 0%, not significant"},
      {"measurement": "tumour outcome (control, treated, inhibition, significance)", "setting": "Carcinogen: N-METHYL-N-NITROSOUREA, 684-93-5, Dose [Inhibitor]: 0, 268 MG/KG DIET FOR 88 D BEGINNING 2 D POST CARCINOGEN DOSE (STUDY DURATION: 90 D), Species: RAT, Strain/Sex: SPRAGUE-DAWLEY/FEMALE, Target Tissue: Type of Lesion: MAMMARY GLAND: ADENOCARCINOMA, Dose [Carcinogen]: 45 MG/KG BW ONCE, Promoter: NONE USED", "value": "100%, 87%, 13%, p<0.05"},
      {"measurement": "tumour outcome (control, treated, inhibition, significance)", "setting": "Carcinogen: N-METHYL-N-NITROSOUREA, 684-93-5, Dose [Inhibitor]: 0, 536 MG/KG DIET FOR 88 D BEGINNING 2 D POST CARCINOGEN DOSE (STUDY DURATION: 90 D), Species: RAT, Strain/Sex: SPRAGUE-DAWLEY/FEMALE, Target Tissue: Type of Lesion: MAMMARY GLAND: ADENOCARCINOMA, Dose [Carcinogen]: 45 MG/KG BW ONCE, Promoter: NONE USED", "value": "100%, 80%, 20%, p<0.05"}
    ]},
    {"smiles": "CCCCCC(O)CC(=O)CCC1CCC(O)C(OC)C1", "note": "(centres undefined)", "values": [
      {"measurement": "tumour outcome (control, treated, inhibition, significance)", "setting": "Carcinogen: AZOXYMETHANE, 25843-45-2, Dose [Inhibitor]: 0, 0.02% IN DIET IN WK 1-3 OF STUDY FOLLOWED BY BASAL DIET FOR DURATION OF STUDY (STUDY DURATION: 1 YR), Species: RAT, Strain/Sex: F344/MALE, Target Tissue: Type of Lesion: LARGE INTESTINE: ADENOCARCINOMA, Dose [Carcinogen]: 15 MG/KG BW 1/WK IN WK 1 AND 2 OF STUDY, Promoter: NONE USED", "value": "13/27 (48%), 3/17 (18%), 63%, not calculated"},
      {"measurement": "tumour outcome (control, treated, inhibition, significance)", "setting": "Carcinogen: AZOXYMETHANE, 25843-45-2, Dose [Inhibitor]: 0, 0.02% IN DIET IN WK 1-3 OF STUDY FOLLOWED BY BASAL DIET FOR DURATION OF STUDY (STUDY DURATION: 1 YR), Species: RAT, Strain/Sex: F344/MALE, Target Tissue: Type of Lesion: LARGE INTESTINE: ADENOMA, Dose [Carcinogen]: 15 MG/KG BW 1/WK IN WK 1 AND 2 OF STUDY, Promoter: NONE USED", "value": "6/27 (22%), 5/17 (29%), -32%, not calculated"},
      {"measurement": "tumour outcome (control, treated, inhibition, significance)", "setting": "Carcinogen: AZOXYMETHANE, 25843-45-2, Dose [Inhibitor]: 0, 0.02% IN DIET IN WK 1-3 OF STUDY FOLLOWED BY BASAL DIET FOR DURATION OF STUDY (STUDY DURATION: 1 YR), Species: RAT, Strain/Sex: F344/MALE, Target Tissue: Type of Lesion: SMALL INTESTINE: ADENOCARCINOMA, Dose [Carcinogen]: 15 MG/KG BW 1/WK IN WK 1 AND 2 OF STUDY, Promoter: NONE USED", "value": "6/27 (22%), 0/17 (0%), 100%, not calculated"}
    ]},
    {"smiles": "Cc1ccc(-c2cc(C(F)(F)F)nn2-c2ccc(S(N)(=O)=O)cc2)cc1", "values": [
      {"measurement": "tumour outcome (control, treated, inhibition, significance)", "setting": "Carcinogen: N-BUTYL-N-N(4-4-HYDROXYBUTYL)-NITROSAMINE [3817-11-6], Dose [Inhibitor]: 200 MG/KG IN DIET FOR 36 WK BEGINNING 1 WK PRIOR TO FIRST CARCINOGEN DOSE (STUDY DURATION: 36 WK), Species: MOUSE, Strain/Sex: B6D2F1/MALE, Target Tissue: Type of Lesion: URINARY BLADDER: TUMOR, Dose [Carcinogen]: 7.5 MG IN 0.1 ML 20% ETHANOL 1X/WK FOR 12 WK (STUDY DURATION: 36 WK), Promoter: NONE", "value": "51%, 29%, 43%, significance level not shown"},
      {"measurement": "tumour outcome (control, treated, inhibition, significance)", "setting": "Carcinogen: N-BUTYL-N-N(4-4-HYDROXYBUTYL)-NITROSAMINE [3817-11-6], Dose [Inhibitor]: 500 MG/KG IN DIET FOR 27 WK BEGINNING 1 WK POST LAST CARCINOGEN DOSE (STUDY DURATION: 8 MONTHS), Species: RAT, Strain/Sex: F344/FEMALE, Target Tissue: Type of Lesion: URINARY BLADDER: TUMOR, Dose [Carcinogen]: 150 MG IN 0.5 ML 20% ETHANOL 2X/WK FOR 8 WK (STUDY DURATION: 8 MONTHS), Promoter: NONE", "value": "57%, 4%, 93%, significance level not shown"},
      {"measurement": "tumour outcome (control, treated, inhibition, significance)", "setting": "Carcinogen: N-BUTYL-N-N(4-4-HYDROXYBUTYL)-NITROSAMINE [3817-11-6], Dose [Inhibitor]: 500 MG/KG IN DIET FOR 36 WK BEGINNING 1 WK PRIOR TO FIRST CARCINOGEN DOSE (STUDY DURATION: 36 WK), Species: MOUSE, Strain/Sex: B6D2F1/MALE, Target Tissue: Type of Lesion: URINARY BLADDER: TUMOR, Dose [Carcinogen]: 7.5 MG IN 0.1 ML 20% ETHANOL 1X/WK FOR 12 WK (STUDY DURATION: 36 WK), Promoter: NONE", "value": "51%, 24%, 53%, significance level not shown"},
      {"measurement": "tumour outcome (control, treated, inhibition, significance)", "setting": "Carcinogen: N-BUTYL-N-N(4-4-HYDROXYBUTYL)-NITROSAMINE [3817-11-6], Dose [Inhibitor]: 500 MG/KG IN DIET FOR 36 WK BEGINNING 1 WK PRIOR TO FIRST CARCINOGEN DOSE (STUDY DURATION: 36 WK), Species: RAT, Strain/Sex: F344/FEMALE, Target Tissue: Type of Lesion: URINARY BLADDER: TUMOR, Dose [Carcinogen]: 150 MG IN 0.5 ML 20% ETHANOL 2X/WK FOR 8 WK (STUDY DURATION: 36 WK), Promoter: NONE", "value": "17/30 (57%), 4/28 (14%), 75%, significance level not shown"},
      {"measurement": "tumour outcome (control, treated, inhibition, significance)", "setting": "Carcinogen: N-BUTYL-N-N(4-4-HYDROXYBUTYL)-NITROSAMINE [3817-11-6], Dose [Inhibitor]: 1000 MG/KG IN DIET FOR 27 WK BEGINNING 1 WK POST LAST CARCINOGEN DOSE (STUDY DURATION: 8 MONTHS), Species: RAT, Strain/Sex: F344/FEMALE, Target Tissue: Type of Lesion: URINARY BLADDER: TUMOR, Dose [Carcinogen]: 150 MG IN 0.5 ML 20% ETHANOL 2X/WK FOR 8 WK (STUDY DURATION: 8 MONTHS), Promoter: NONE", "value": "57%, 0%, 100%, significance level not shown"},
      {"measurement": "tumour outcome (control, treated, inhibition, significance)", "setting": "Carcinogen: N-BUTYL-N-N(4-4-HYDROXYBUTYL)-NITROSAMINE [3817-11-6], Dose [Inhibitor]: 1000 MG/KG IN DIET FOR 36 WK BEGINNING 1 WK PRIOR TO FIRST CARCINOGEN DOSE (STUDY DURATION: 36 WK), Species: RAT, Strain/Sex: F344/FEMALE, Target Tissue: Type of Lesion: URINARY BLADDER: TUMOR, Dose [Carcinogen]: 150 MG IN 0.5 ML 20% ETHANOL 2X/WK FOR 8 WK (STUDY DURATION: 36 WK), Promoter: NONE", "value": "17/30 (57%), 6/29 (21%), 63%, significance level not shown"},
      {"measurement": "tumour outcome (control, treated, inhibition, significance)", "setting": "Carcinogen: N-BUTYL-N-N(4-4-HYDROXYBUTYL)-NITROSAMINE [3817-11-6], Dose [Inhibitor]: 1250 MG/KG IN DIET FOR 36 WK BEGINNING 1 WK PRIOR TO FIRST CARCINOGEN DOSE (STUDY DURATION: 36 WK), Species: MOUSE, Strain/Sex: B6D2F1/MALE, Target Tissue: Type of Lesion: URINARY BLADDER: TUMOR, Dose [Carcinogen]: 7.5 MG IN 0.1 ML 20% ETHANOL 1X/WK FOR 12 WK (STUDY DURATION: 36 WK), Promoter: NONE", "value": "51%, 12%, 76%, significance level not shown"},
      {"measurement": "outcome", "setting": "Carcinogen: N-nitrosodiethylamine (55-18-5), Dose [Inhibitor]: 1500 mg/kg in diet for 38 wk, study duration 38 wk, Route [Inhibitor]: Oral, Species: Rat, Strain/Sex: Wistar/Male, Target Tissue: Type of Lesion: Liver: Neoplasia, Dose [Carcinogen]: 100 mg/l in drinking water for 4 mo, Promoter: None", "value": "91.7, 65.2, p<0.05"}
    ]},
    {"smiles": "CC(=O)Oc1ccccc1C(=O)Oc1ccccc1C(=O)O", "values": [
      {"measurement": "tumour outcome (control, treated, inhibition, significance)", "setting": "Carcinogen: NONE USED, Dose [Inhibitor]: 0, 0.1% IN CHOLINE-DEFICIENT DIET FOR 30 WK (STUDY DURATION: 30 WK), Species: RAT, Strain/Sex: F344/MALE, Target Tissue: Type of Lesion: LIVER: NEOPLASTIC NODULE, Promoter: NONE USED", "value": "8/8 (100%), 10/10 (100%), 0%, not significant and 4/4 (100%), 3/3 (100%), 0%, not significant"},
      {"measurement": "tumour outcome (control, treated, inhibition, significance)", "setting": "Carcinogen: NONE USED, Dose [Inhibitor]: 0, 0.2% IN CHOLINE-DEFICIENT DIET FOR 30 WK (STUDY DURATION: 30 WK), Species: RAT, Strain/Sex: F344/MALE, Target Tissue: Type of Lesion: LIVER: NEOPLASTIC NODULE, Promoter: NONE USED", "value": "8/8 (100%), 4/11 (36%), 64%, p<0.05 and 4/4 (100%), 3/3 (100%), 0%, not significant"},
      {"measurement": "tumour outcome (control, treated, inhibition, significance)", "setting": "Carcinogen: NONE USED, Dose [Inhibitor]: 0, 0.4% IN CHOLINE-DEFICIENT DIET FOR 30 WK (STUDY DURATION: 30 WK), Species: RAT, Strain/Sex: F344/MALE, Target Tissue: Type of Lesion: LIVER: NEOPLASTIC NODULE, Promoter: NONE USED", "value": "4/4 (100%), 0/4 (0%), 100%, p<0.05"},
      {"measurement": "tumour outcome (control, treated, inhibition, significance)", "setting": "Carcinogen: NONE USED, Dose [Inhibitor]: 0, 0.8% IN CHOLINE-DEFICIENT DIET FOR 30 WK (STUDY DURATION: 30 WK), Species: RAT, Strain/Sex: F344/MALE, Target Tissue: Type of Lesion: LIVER: NEOPLASTIC NODULE, Promoter: NONE USED", "value": "4/4 (100%), 0/3 (0%), 100%, p<0.05"}
    ]}
  ]
}
